# How the values were obtained:
# [1] = Distribution, dosimetry and safety in healthy volunteers (PET/CT, OLINDA/EXM); assay type: in vivo, human
# Protocol: This experiment was approved by the Clinical Research Ethics Committee of the First Affiliated Hospital of Xiamen University, and all subjects signed a written informed consent form. A dose of ^68Ga-2PEG(3)-FAPI-dimer for intravenous injection (1.8 MBq to 2.2 MBq [0.05 mCi to 0.06 mCi]/kg) was calculated according to a body weight of a subject. Data were acquired using a hybrid PET/CT scanner (Discovery MI, GE Healthcare, Milwaukee, WI, USA) at 10 min, 30 min, 60 min, and 180 min after intravenous injection. A maximum standard uptake value (SUVmax) was automatically calculated with ROIs drawn on a transaxial image. Safety data, including vital signs (blood pressure, pulse, respiratory rate, and body temperature) and adverse events, were acquired 4 h before and after the ^68Ga-2PEG(3)-FAPI-dimer was injected. […] The time-activity curve fitting and subsequent dose calculation were conducted using OLINDA/EXM v.1.1.
# HCC-PDX-2 = experiment: PET imaging in HCC-PDX-2 model; assay type: in vivo, mouse; settings: HCC-PDX-2, 7.4 MBq via tail vein
# Protocol: The PET imaging and biodistribution studies were conducted in HCC-PDX1 and HCC-PDX2 mouse models. The histological verification was first conducted, where the immunohistochemical staining and H&E staining were conducted for FAP and Ki67, a tumor tissue was digested for protein extraction, and the expression of FAP was detected by Western Blot. Verification results were shown in FIG. 6A-B, where the immunohistochemical staining result was shown in FIG. 6A and the Western Blot result was shown in FIG. 6B. […] Therefore, the models can be used for further mouse experiments.
# The products of ^68Ga-2PEG(3)-FAPI-dimer and ^68Ga-FAPI-46 were each diluted to a concentration of 74 MBq/mL. 7.4 MBq of ^68Ga-2PEG(3)-FAPI-dimer or 7.4 MBq of ^68Ga-FAPI-46 was injected into the HCC-PDX model through the tail vein (3 parallel experiments per group). All PET scans were conducted with an Inveon small animal PET scanner (Siemens Preclinical Solution, USA). The dynamic PET imaging was conducted with a scan duration of 60 min and reconstructed frames of 10×30 s, 10×60 s, 10×120 s, and 9×160 s. The 10 min static PET imaging was conducted with acquisition time points of 0.5 h, 1 h, 2 h, and 4 h after injection. […] Region of interests (ROIs) in the tumor, liver, heart, kidney, and muscle were calculated on PET images to quantify radioactive signals.
# [2] = three healthy volunteers, i.v., OLINDA/EXM
smiles,measurement,setting,value
CN(CCCN1CCN(C(=O)COCCOCCOCCNC(=O)CCC(=O)N[C@@H](CCCCNC(=O)CN2CCN(CC(=O)[O-])CCN(CC(=O)[O-])CCN(CC(=O)[O-])CC2)C(=O)NCCOCCOCCOCC(=O)N2CCN(CCCN(C)c3ccc4nccc(C(=O)NCC(=O)N5CC(F)(F)C[C@H]5C#N)c4c3)CC2)CC1)c1ccc2nccc(C(=O)NCC(=O)N3CC(F)(F)C[C@H]3C#N)c2c1.[68Ga+3] [^68Ga-2PEG(3)-FAPI-dimer],"discomfort symptoms after injection (vital signs, adverse events)","[1]; i.v. 1.8 MBq to 2.2 MBq/kg, 4 h before and after injection",did not undergo any discomfort symptoms
same,"Average value, Adrenal gland (dosimetry)",[1]; [2],7.98E−05 mSv/MBq
same,"Average value, Ascending colon wall (dosimetry)",[1]; [2],2.79E−05 mSv/MBq
same,"Average value, Bladder wall (dosimetry)",[1]; [2],1.04E−03 mSv/MBq
same,"Average value, Brain (dosimetry)",[1]; [2],3.16E−05 mSv/MBq
same,"Average value, Breast (dosimetry)",[1]; [2],6.36E−05 mSv/MBq
same,"Average value, Descending colon wall (dosimetry)",[1]; [2],9.22E−04 mSv/MBq
same,"Average value, Effective dose",[1]; [2],1.19E−02 mSv/MBq
same,"Average value, Effective dose equivalent",[1]; [2],1.69E−02 mSv/MBq
same,"Average value, Kidney (dosimetry)",[1]; [2],1.01E−04 mSv/MBq
same,"Average value, Liver (dosimetry)",[1]; [2],1.65E−03 mSv/MBq
same,"Average value, Lung (dosimetry)",[1]; [2],1.36E−03 mSv/MBq
same,"Average value, Muscle (dosimetry)",[1]; [2],4.19E−05 mSv/MBq
same,"Average value, Osteoblast (dosimetry)",[1]; [2],6.47E−05 mSv/MBq
same,"Average value, Ovary (dosimetry)",[1]; [2],5.94E−04 mSv/MBq
same,"Average value, Pancreas (dosimetry)",[1]; [2],7.61E−04 mSv/MBq
same,"Average value, Red bone marrow (dosimetry)",[1]; [2],1.12E−03 mSv/MBq
same,"Average value, Skin (dosimetry)",[1]; [2],1.22E−05 mSv/MBq
same,"Average value, Small intestine (dosimetry)",[1]; [2],5.18E−05 mSv/MBq
same,"Average value, Spleen (dosimetry)",[1]; [2],1.58E−04 mSv/MBq
same,"Average value, Stomach wall (dosimetry)",[1]; [2],7.12E−04 mSv/MBq
same,"Average value, Thymus (dosimetry)",[1]; [2],9.64E−06 mSv/MBq
same,"Average value, Thyroid (dosimetry)",[1]; [2],3.11E−03 mSv/MBq
same,"Average value, Uterus (dosimetry)",[1]; [2],1.27E−05 mSv/MBq
same,uptake in normal organs,HCC-PDX-2; PET,low and decline rapidly
same,uptake and residence in tumor tissue compared with ^68Ga-FAPI-46,"HCC-PDX-2; PET 0.5 h, 1 h, 2 h, 4 h",better than

# — patent US11952368B2, “FAPI dimer compound, FAPI dimer-based positron emission tomography (PET) imaging agent for tumor diagnosis, and preparation method and use thereof” (XIAMEN UNIVERSITY, priority 2021, dated 2024)
